This note sets out measurements from patent publication US11161826B2, “Manufacturing methods and polymorphs of a thiazoline anti-hyperalgesic agent” (ACADIA PHARMACEUTICALS INC., priority 2019, dated 2021).

Holding throughout (format): physicochemical
Data set [1] can be described thus: Thermogravimetric Analysis (TGA) decomposition. An excerpt:
The combined DSC/TGA results for (R)-2-(2-hydroxyphenylamino)-5,5-dimethyl-4,5-dihydrothiazole-4-carboxylic acid mono-hydrochloride is provided in FIG. 7. […] An amorphous form of Compound 1 can be made by, for example, lyophilizing crystalline Compound 1 as described in Example 4 herein.

Data set [2] can be described thus: Solubility in organic/aqueous solvents.
Data set [3] is described as follows: Gravimetric Vapor Sorption (GVS). An excerpt: The sample is hygroscopic.

Structures can show the parent of a compound that is named as a salt.

For the molecule `CC1(C)SC(Nc2ccccc2O)=N[C@@H]1C(=O)O` [Compound 1, (R)-2-(2-hydroxyphenylamino)-5,5-dimethyl-4,5-dihydrothiazole-4-carboxylic acid mono-hydrochloride], the “TGA start of decomposition (total 5% mass loss)” value in data set [1] was around 202 °C. In addition, the solubility result in data set [2] (10% water/tetrahydrofuran) is “sparingly soluble”; in data set [2] (10% water:iso-propyl acetate), “sparingly soluble”; in data set [2] (acetone), “less than sparingly soluble”; in data set [2] (ethanol), “sparingly soluble”; in data set [2] (ethyl acetate), “less than sparingly soluble”; in data set [2] (iso-propanol) it was “sparingly soluble”. Moreover, the solubility result in data set [2] (iso-propyl acetate) is recorded as “less than sparingly soluble”; in data set [2] (methanol), “freely soluble”; in data set [2] (n-heptane) it was “less than sparingly soluble”; in data set [2] (tert-butyl alcohol), “less than sparingly soluble”; in data set [2] (tert-butyl alcohol:water (1:1)) it was “freely soluble”; in data set [2] (tert-butyl methyl ether), “less than sparingly soluble”. Also, the solubility result in data set [2] (tetrahydrofuran) is listed as “less than sparingly soluble”; in data set [2] (toluene), “less than sparingly soluble”; in data set [2] (water) it was “sparingly soluble”. Further, in data set [3] (GVS), the hygroscopicity result was “hygroscopic”. The molecule also had a GVS uptake in data set [3] (between 0% and 90% RH) of 6%.
